Measured values as given in patent US20240116985A1, “STAPLED PEPTIDES AND METHODS THEREOF” (priority 2020, published 2024).
Read-outs that look alike come from different tables or passages of the source.

What was measured:
[1] = biological target: T1, full-length beta-Catenin (Uniprot ID P35222) (Homo sapiens, UniProt P35222); assay: Fluorescence polarization IC50 (beta-catenin / 5FAM-TCF4 10-53 competition); type: binding; conditions: fluorescence polarization; read-out: beta-Catenin FP IC50
T1 construct: 10 nM full-length beta-Catenin (Uniprot ID P35222)
T1 sequence (P35222 1-781): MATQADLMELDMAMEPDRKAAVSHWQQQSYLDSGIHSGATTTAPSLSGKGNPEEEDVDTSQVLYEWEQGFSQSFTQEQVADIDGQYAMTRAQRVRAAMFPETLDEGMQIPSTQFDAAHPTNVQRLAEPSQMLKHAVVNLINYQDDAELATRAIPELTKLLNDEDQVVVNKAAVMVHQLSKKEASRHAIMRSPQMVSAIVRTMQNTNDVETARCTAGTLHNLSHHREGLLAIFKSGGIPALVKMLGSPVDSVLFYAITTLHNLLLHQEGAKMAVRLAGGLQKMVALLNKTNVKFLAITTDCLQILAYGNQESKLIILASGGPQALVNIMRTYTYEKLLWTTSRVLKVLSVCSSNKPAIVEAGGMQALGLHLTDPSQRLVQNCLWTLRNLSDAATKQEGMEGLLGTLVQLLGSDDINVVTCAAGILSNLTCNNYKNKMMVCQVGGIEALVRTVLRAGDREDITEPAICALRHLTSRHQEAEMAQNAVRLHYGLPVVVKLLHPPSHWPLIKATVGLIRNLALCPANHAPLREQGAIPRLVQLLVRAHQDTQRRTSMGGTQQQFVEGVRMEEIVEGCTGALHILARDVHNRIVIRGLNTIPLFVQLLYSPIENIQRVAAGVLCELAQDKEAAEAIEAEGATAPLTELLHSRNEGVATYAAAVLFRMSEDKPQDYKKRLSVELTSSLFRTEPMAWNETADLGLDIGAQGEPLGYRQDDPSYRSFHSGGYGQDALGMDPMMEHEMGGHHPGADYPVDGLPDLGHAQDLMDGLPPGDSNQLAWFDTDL

[2] = biological target: T2, beta-catenin/TCF4 engagement (Homo sapiens, UniProt P35222); assay: Nano-BRET target engagement assay (B-cat-Halo & TCF4-Luc in HEK293 cells); type: cell-based; conditions: read-out: NanoBRET Abs IC50
T2 construct: expressed in transfected cells; host or cells: HEK293
T2 sequence (P35222 1-781): T1 sequence (P35222 1-781)

SMILES | IC50 [1] [nM] | IC50 ([2]; absolute IC50) [µM] | IC50 [2] [µM]
CC(=O)N1CCC[C@]12CC=CCCCC1(CCCC=CCCCOC(=O)N3CC[C@@](C(=O)N[C@@H](Cc4ccccc4C(F)(F)F)C(=O)N[C@@H](Cc4csc5ccccc45)C(=O)N[C@@H](C)C(N)=O)(C3)NC(=O)[C@H](CC(C)C)NC(=O)[C@H](Cc3ccccc3)NC(=O)[C@H](C)NC(=O)[C@H](CCC(N)=O)NC(=O)[C@H](Cn3cc(C(C)(C)C(=O)O)nn3)NC(=O)[C@H](CC(=O)O)NC1=O)NC(=O)[C@H](CC(C)(C)C)NC(=O)[C@H](CC(=O)O)NC2=O (stereo partly drawn) [I-2369, Ac-PL3-Asp-Npg-B5-Asp-[CMe2CO2H]TriAzDap-Gln-Ala-Phe-Leu-PyrS2-2F3MeF-BztA-Ala-NH2] | 14 | 9.5 | –
CC(=O)N1CCC[C@]12CC=CCCCC1(CCCC=CCCCOC(=O)N3CC[C@@](C(=O)N[C@@H](Cc4ccccc4Cl)C(=O)N[C@@H](Cc4csc5ccccc45)C(=O)N[C@@H](CCC(N)=O)C(N)=O)(C3)NC(=O)[C@H](CC(C)C)NC(=O)[C@H](Cc3ccccc3)NC(=O)[C@H](C)NC(=O)[C@H](C)NC(=O)[C@H](CN(CC(=O)O)CC(F)(F)F)NC(=O)[C@H](CC(=O)O)NC1=O)NC(=O)[C@H](CC(C)(C)C)NC(=O)[C@H](CC(=O)O)NC2=O (stereo partly drawn) [I-1833, Ac-PL3-Asp-Npg-B5-Asp-TfeGA-Ala-Ala-Phe-Leu-PyrS2-2C1F-BztA-Gln-NH2] | 26 | 6.9 | –
CC(=O)N1CCC[C@]12CC=CCCCC1(CCCC=CCCCOC(=O)N3CC[C@@](C(=O)N[C@@H](Cc4ccsc4)C(=O)N[C@@H](Cc4ccc5ccccc5c4)C(=O)N[C@@H](CCC(N)=O)C(N)=O)(C3)NC(=O)[C@H](CC(C)C)NC(=O)[C@H](Cc3ccccc3)NC(=O)[C@H](C)NC(=O)[C@H](C)NC(=O)[C@H](Cc3cccc(C(=O)O)c3)NC(=O)[C@H](CC(=O)O)NC1=O)NC(=O)[C@H](CC(C)(C)C)NC(=O)[C@H](CC(=O)O)NC2=O (stereo partly drawn) [I-2309, Ac-PL3-Asp-Npg-B5-Asp-3COOHF-Ala-Ala-Phe-Leu-PyrS2-3Thi-2NapA-Gln-NH2] | 17 | 13.7 | –
CC(=O)N1CCC[C@]12CC=CCCCC1(CCCC=CCCCCCC[C@@](C)(C(=O)N[C@@H](Cc3cccs3)C(=O)N[C@@H](Cc3csc4ccccc34)C(=O)N[C@@H](CCC(N)=O)C(N)=O)NC(=O)[C@H](CC(N)=O)NC(=O)[C@H](Cc3ccccc3)NC(=O)[C@H](C)NC(=O)[C@H](C)NC(=O)[C@H](CC(=O)O)NC(=O)[C@H](CC(=O)O)NC1=O)NC(=O)[C@H](CC(C)(C)C)NC(=O)[C@H](CC(=O)O)NC2=O (stereo partly drawn) [I-1391, Ac-PL3-Asp-Npg-B5-Asp-Asp-Ala-Ala-Phe-Asn-S8-2Thi-BztA-Gln-NH2] | 11 | 35 | –
CC(=O)N1CCC[C@]12CC=CCCCC1(CCCC=CCCCOC(=O)N3CC[C@@](C(=O)N[C@@H](Cc4ccccc4C(F)(F)F)C(=O)N[C@@H](Cc4ccc(F)c(Br)c4)C(=O)N[C@@H](C)C(N)=O)(C3)NC(=O)[C@H](CC(C)C)NC(=O)[C@H](Cc3ccccc3)NC(=O)[C@H](C)NC(=O)[C@H](CCC(N)=O)NC(=O)[C@H](Cc3cccc(C(=O)O)c3)NC(=O)[C@H](CC(=O)O)NC1=O)NC(=O)[C@H](CC(C)(C)C)NC(=O)[C@H](CC(=O)O)NC2=O (stereo partly drawn) [I-2290, Ac-PL3-Asp-Npg-B5-Asp-3COOHF-Gln-Ala-Phe-Leu-PyrS2-2F3MeF-3Br4FF-Ala-NH2] | 14 | 7.9 | –
CC(=O)N1CCC[C@]12CC=CCCCC1(CCCC=CCCCOC(=O)N3CC[C@@](C(=O)N[C@@H](Cc4ccccc4C(F)(F)F)C(=O)N[C@@H](Cc4csc5c(Cl)cccc45)C(=O)N[C@@H](C)C(N)=O)(C3)NC(=O)[C@H](CC(C)C)NC(=O)[C@H](Cc3ccccc3)NC(=O)[C@H](C)NC(=O)[C@H](CCC(N)=O)NC(=O)[C@H](Cc3cccc(C(=O)O)c3)NC(=O)[C@H](CC(=O)O)NC1=O)NC(=O)[C@H](CC(C)(C)C)NC(=O)[C@H](CC(=O)O)NC2=O (stereo partly drawn) [I-2487, Ac-PL3-Asp-Npg-B5-Asp-3COOHF-Gln-Ala-Phe-Leu-PyrS2-2F3MeF-7C1BztA-Ala-NH2] | 36 | 4.2 | –
CC(=O)N1CCC[C@]12CC=CCCCC1(CCCC=CCCCOC(=O)N3CC[C@@](C(=O)N[C@@H](Cc4ccsc4)C(=O)N[C@@H](Cc4csc5ccccc45)C(=O)N[C@@H](CCC(N)=O)C(N)=O)(C3)NC(=O)[C@H](CCC(=O)N3CCN(CCCN(C)C)CC3)NC(=O)[C@H](Cc3ccccc3)NC(=O)[C@H](C)NC(=O)[C@H](C)NC(=O)[C@H](CN(CC(=O)O)CC(F)(F)F)NC(=O)[C@H](CC(=O)O)NC1=O)NC(=O)[C@H](CC(C)(C)C)NC(=O)[C@H](CC(=O)O)NC2=O (stereo partly drawn) [I-1936, Ac-PL3-Asp-Npg-B5-Asp-TfeGA-Ala-Ala-Phe-[Me2NPrPip]GlnR-PyrS2-3Thi-BztA-Gln-NH2] | 10 | – | 15.7

These reach a lower IC50 [1]. Values come first.

IC50 [1] [nM] | IC50 ([2]; absolute IC50) [µM] | IC50 [2] [µM] | SMILES
7 | – | 7.1 | CC(=O)N1CCC[C@]12CC=CCCCC1(CCCC=CCCCOC(=O)N3CC[C@@](C(=O)N[C@@H](Cc4ccsc4)C(=O)N[C@@H](Cc4csc5ccccc45)C(=O)N[C@@H](C)C(N)=O)(C3)NC(=O)[C@H](CC(C)C)NC(=O)[C@H](Cc3ccccc3)NC(=O)[C@H](C)NC(=O)[C@H](CCC(N)=O)NC(=O)[C@H](Cc3ccc(F)c(C(=O)O)c3)NC(=O)[C@H](CC(=O)O)NC1=O)NC(=O)[C@H](CC(C)(C)C)NC(=O)[C@H](CC(=O)O)NC2=O (stereo partly drawn) [I-2206, Ac-PL3-Asp-Npg-B5-Asp-4F3COOHF-Gln-Ala-Phe-Leu-PyrS2-3Thi-BztA-Ala-NH2]
7 | 6.2 | – | CC(=O)N1CCC[C@]12CC=CCCCC1(CCCC=CCCCOC(=O)N3CC[C@@](C(=O)N[C@@H](Cc4ccccc4C(F)(F)F)C(=O)N[C@@H](Cc4csc5ccccc45)C(=O)N[C@@H](C)C(N)=O)(C3)NC(=O)[C@H](CC(C)C)NC(=O)[C@H](Cc3ccccc3)NC(=O)[C@H](C)NC(=O)[C@H](CCC(N)=O)NC(=O)[C@H](Cn3cc(CCC(=O)O)nn3)NC(=O)[C@H](CC(=O)O)NC1=O)NC(=O)[C@H](CC(C)(C)C)NC(=O)[C@H](CC(=O)O)NC2=O (stereo partly drawn) [I-2367, Ac-PL3-Asp-Npg-B5-Asp-[CH2CH2CO2H]TriAzDap-Gln-Ala-Phe-Leu-PyrS2-2F3MeF-BztA-Ala-NH2]
6 | 5.8 | – | CCCC[C@@H]1NC(=O)[C@H](CC(=O)O)NC(=O)[C@]2(CC=CCCCC3(CCCC=CCCCCCC[C@@](C)(C(=O)N[C@@H](Cc4ccccc4)C(=O)N[C@@H](Cc4csc5ccccc45)C(=O)N[C@@H](CCC(N)=O)C(N)=O)NC(=O)[C@H](CCC(N)=O)NC(=O)[C@H](Cc4ccccc4)NC(=O)[C@H](C)NC(=O)[C@H](C)NC(=O)[C@H](CCC(=O)O)NC(=O)[C@H](CC(=O)O)NC3=O)NC1=O)CCCN2C(C)=O (stereo partly drawn) [I-1522, Ac-PL3-Asp-nLeu-B5-Asp-Glu-Ala-Ala-Phe-Gln-S8-Phe-BztA-Gln-NH2]
6 | 2.1 | – | CC(=O)N1CCC[C@]12CC=CCCCC1(CCCC=CCCCOC(=O)N3CC[C@@](C(=O)N[C@@H](Cc4ccsc4)C(=O)N[C@@H](Cc4ccc(Cl)c(Cl)c4)C(=O)N[C@@H](C)C(N)=O)(C3)NC(=O)[C@H](C(C)C)NC(=O)[C@H](Cc3ccccc3)NC(=O)[C@H](C)NC(=O)[C@H](CCC(N)=O)NC(=O)[C@H](Cc3cccc(C(=O)O)c3)NC(=O)[C@H](CC(=O)O)NC1=O)NC(=O)[C@H](CC(C)(C)C)NC(=O)[C@H](CC(=O)O)NC2=O (stereo partly drawn) [I-2217, Ac-PL3-Asp-Npg-B5-Asp-3COOHF-Gln-Ala-Phe-Val-PyrS2-3Thi-34C1F-Ala-NH2]
